According to US8105567B2, “Multidentate AZA ligands able to complex metal ions and the use thereof in diagnostics and therapy” (Bracco Imaging SpA, priority 2001, dated 2012):

Legend:
[1] = Affinity for lactate ions (titration of 1 mM Gd(III) complex, ternary complex formation); assay type: physicochemical; details: for KA (association constant) with lactate ions: titration with lactate ions
Protocol: (§1) A test, to further evaluate the lack of formation of ternary complexes was performed. As a non-limiting example, we measured the affinity of the compound of example 1 for lactate and phosphate ions. The determination was performed directly by adding increasing amounts of each anion to a 1 mM solution of the Gd(III) complex.
Conversely analogous titrations of Gd-DO3A and Gd-DO3MA (both endowed with q=2) with lactate ions yielded KA values of 150 M^−1 and 110 M^−1, respectively.

[2] = reference complex with two water molecules in the inner sphere; cited from earlier work
[3] = Potentiometric measurements: Gd complexation constant; assay type: physicochemical
Protocol: (§2) All the pH metric measurements (pH=−log [H^+]) were carried out in degassed 0.1 mol dm^−3 NMe4NO3 solutions, at 298.1 K, by using a Metrohm 670 Titroprocessor equipped with a Metrohm 6.0203.100 combined pH electrode. Prior to each potentiometric titration, the combined Metrohm electrode was calibrated as a hydrogen concentration probe by titrating known amounts of HCl with CO2-free NMe4OH solutions and determining the equivalent point by the Gran's method which allows to determine the standard potential E^o, and the ionic product of water. In the complexation experiments the metal ion concentration was about 80% of the ligand concentration. At least three measurements (about 100 data points each one) were performed for each system in the pH range 2.5-10.5 and the relevant e.m.f. data were treated by means of the computer programs […] and […] which furnished the protonation and the complexation constants.

[4] = Relaxivity of the Gd(III) complex; assay type: physicochemical; details: 25° C., pH 7 and 20 MHz
Protocol: The relaxivity determined at 25° C., pH 7 and 20 MHz for said complex is 7.1 mM^−1 s^−1.

[5] = Exchange time (tM) by transverse water 17O NMR relaxation time at variable temperature; assay type: physicochemical; details: 298 K
Excerpt: The exchange time (tM) value of the Gd(III) complex of the example 1 has been assessed by measuring the transverse water ^17O NMR relaxation time at variable temperature according to the procedure described by Aime et al., in the above cited literature.
Obtained value turned out to be 90 ns at 298 K. Albeit the optimal value (about 30 ns) has not been attained, this exchange rate can be considered quite fast, especially if compared with that of (Gd-DO3A), the Gd(III) complex of reference, with two water molecules in the inner sphere, whose tM value is 160 ns.

[6] = NMRD profile fitting (molecular reorientational time); assay type: physicochemical; details: calculated from fitting of the NMRD profile
[7] = Relaxivity as a function of the pH; assay type: physicochemical; details: FIG. 3
Excerpt: The relaxivity of this complex was further tested as a function of the pH.

[8] = Affinity for phosphate ions (titration of 1 mM Gd(III) complex, ternary complex formation); assay type: physicochemical; details: increasing amounts of anion added to 1 mM complex, FIG. 4
Protocol: as §1

[9] = Potentiometric measurements: protonation constants of the ligand; assay type: physicochemical; details: 0.1 mol dm^−3 NMe4NO3, 298.1 K
Protocol: as §2

PC-3 tumors = experiment: Biodistribution and tumor targeting of 177Lu complexes in the human PC-3 nude mouse model; assay type: in vivo; details: 177Lu complex
Protocol: For biodistribution studies, the radiolabeled compounds were prepared as described above except that a 1:1 molar ratio of ligand to Lutetium was used to guarantee complete chelation of all starting ligand. […] The remaining solution was further diluted to the required radioconcentration using Bacteriostatic saline/ASCOR L500® Ascorbic Acid Injection USP mixed in a 9 to 1 [v/v]) ratio.
10-50 μCi of the HPLC purified compounds were administered to each mouse by i.v. tail vein injection, n=4 per group. At 1 h, 1 and 7 days post injection, the mice were terminated and the organs and tissues were harvested. Radioactivity was assayed in a gamma counter. The data was expressed as percentage of the total administered radioactivity (% ID) for the urine combined with the bladder, as well as for the blood pool; and percentage of the total administered radioactivity per gram (% ID/g) for all the other tested organs

O=C([O-])CN1CCNCCN(CC(=O)[O-])CCN(CC(=O)[O-])CC1.[Gd+3] [Gd-DO3A, reference compound]
KA (association constant) with lactate ions [1]: 150 M⁻¹ | tM value (reference complex) [2]: 160 ns

Gd(III) Complex of 1,4-Bis(carboxymethylmethyl)-6-[bis(hydroxycarbonyl-methyl)amino]-6-methylperhydro-1,4-diazepine [Gd(III) complex of Example 1]
LogKGd ([3]; M + L = ML, 0.1 mol dm^−3 NMe4NO3, 298.1 K): 21.52 (1) | LogKGd (conditional, pH 7.4) ([3]; conditional, pH 7.4): LogKGd (conditional, pH 7.4) = 17.06 | relaxivity [4]: 7.1 mM⁻¹ s⁻¹ | exchange time (tM) [5]: 90 ns | tR (molecular reorientational time) [6]: 80 ps | relaxation rate over the investigated pH range [7]: substantially constant | interaction with lactate ions ([1]; increasing amounts of anion added to 1 mM complex, FIG. 4): complete absence of interaction | KA (association constant) with lactate ions [1]: does not show any measurable association constant | interaction with phosphate ions [8]: complete absence of interaction

CC(C(=O)[O-])N1CCNCCN(C(C)C(=O)[O-])CCN(C(C)C(=O)[O-])CC1.[Gd+3] (stereo not drawn) [Gd-DO3MA, reference compound]
KA (association constant) with lactate ions [1]: 110 M⁻¹

CC1(N(CC(=O)O)CC(=O)O)CN(CC(=O)O)CCN(CC(=O)O)C1 [Example 1, 1,4-Bis(carboxymethyl)-6-[bis(carboxymethyl)amino]-6-methyl-perhydro-1,4-diazepine]
Log KH ([9]; H2L + H = H3L): 4.09 (3) | Log KH ([9]; H3L + H = H4L): 2.60 (3) | Log KH ([9]; H4L + H = H5L): 1.44 (4) | Log KH ([9]; H + L = HL): 11.80 (2) | Log KH ([9]; HL + H = H2L): 6.55 (2)

CC1(N(CC(=O)O)CC(=O)O)CN(CC(=O)O)[C@@H]2CCCC[C@H]2N(CC(=O)O)C1 [Compound 94]
clearance of Lu-177 from the body (in words) (PC-3 tumors; PC-3 nude mouse): rapidly cleared from the body with little residual localization in any organs or tissue | Blood 1 h % ID (PC-3 tumors; i.v., 1 h post injection, blood): 0.39 ± 0.29 % ID | Blood 24 h % ID (PC-3 tumors; i.v., 24 h post injection, blood): 0.01 ± 0.01 % ID | Blood 7 d % ID (*72 h timepoint) (PC-3 tumors; i.v., 72 h timepoint, blood): 0.00 ± 0.00 % ID
